# Assays:
# human α1A‐adrenoceptor [1] = target: T1, human α1A‐adrenoceptor (Homo sapiens, UniProt P35348); experiment: Intracellular free calcium mobilization, CHO‐α1A cells; type: cell-based; details: for Intracellular calcium release % ionomycin: maximal response as % of 10 µM ionomycin
# T1 construct: expressed in transfected cells; host or cells: CHO-K1
# T1 sequence (P35348 1-466): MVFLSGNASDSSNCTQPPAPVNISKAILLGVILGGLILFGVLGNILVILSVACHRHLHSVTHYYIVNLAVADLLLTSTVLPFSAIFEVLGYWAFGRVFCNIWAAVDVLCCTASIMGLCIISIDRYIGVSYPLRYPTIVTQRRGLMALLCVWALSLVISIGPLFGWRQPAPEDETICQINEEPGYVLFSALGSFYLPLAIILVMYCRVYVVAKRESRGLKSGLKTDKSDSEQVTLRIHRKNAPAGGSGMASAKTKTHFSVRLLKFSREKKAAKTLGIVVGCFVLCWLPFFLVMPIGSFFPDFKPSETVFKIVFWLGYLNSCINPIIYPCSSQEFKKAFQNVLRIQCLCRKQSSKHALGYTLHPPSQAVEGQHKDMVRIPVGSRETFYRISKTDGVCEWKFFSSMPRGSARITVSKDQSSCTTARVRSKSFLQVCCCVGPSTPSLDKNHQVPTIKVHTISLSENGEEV
# human α1B‐adrenoceptor [2] = target: T2, human α1B‐adrenoceptor (Homo sapiens, UniProt P35368); experiment: Intracellular free calcium mobilization, CHO‐α1B cells; type: cell-based; details: CHO‐α1B cells; for Intracellular calcium release % Ionomycin at 100 µM: response at 100 µM ligand (no EC50 given), % of ionomycin response; for Intracellular calcium release Log EC50: given as log EC50 (negative numbers); for Intracellular calcium release % ionomycin: maximal response as % of 10 µM ionomycin response
# T2 construct: expressed in transfected cells; host or cells: CHO-K1
# T2 sequence (P35368 1-520): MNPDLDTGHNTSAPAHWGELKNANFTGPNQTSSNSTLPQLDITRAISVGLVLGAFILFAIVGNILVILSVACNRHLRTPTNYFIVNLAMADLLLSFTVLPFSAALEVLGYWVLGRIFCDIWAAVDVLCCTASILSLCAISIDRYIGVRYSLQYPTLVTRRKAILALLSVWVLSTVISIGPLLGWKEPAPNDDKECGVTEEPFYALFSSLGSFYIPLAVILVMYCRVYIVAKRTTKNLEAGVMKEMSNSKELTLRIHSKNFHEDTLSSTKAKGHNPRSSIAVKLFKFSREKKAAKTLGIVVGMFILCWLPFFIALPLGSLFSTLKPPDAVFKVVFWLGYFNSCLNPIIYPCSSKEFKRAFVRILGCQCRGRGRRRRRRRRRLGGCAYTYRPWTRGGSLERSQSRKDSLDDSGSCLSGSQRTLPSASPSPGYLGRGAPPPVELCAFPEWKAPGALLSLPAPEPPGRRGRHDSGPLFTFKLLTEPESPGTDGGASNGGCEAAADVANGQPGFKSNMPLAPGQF
# [3] = target: T3, human α1D‐adrenoceptor (full length) (Homo sapiens, UniProt P25100); experiment: ERK1/2‐phosphorylation (Surefire Alphascreen), CHO‐α1D cells; type: cell-based; details: CHO‐α1D cells; for ERK1/2‐phosphorylation % PDBu: maximal response as % of PDBu
# T3 construct: human α1D‐adrenoceptor (full length) were used; expressed in transfected cells; host or cells: CHO-K1
# T3 sequence (P25100 1-572): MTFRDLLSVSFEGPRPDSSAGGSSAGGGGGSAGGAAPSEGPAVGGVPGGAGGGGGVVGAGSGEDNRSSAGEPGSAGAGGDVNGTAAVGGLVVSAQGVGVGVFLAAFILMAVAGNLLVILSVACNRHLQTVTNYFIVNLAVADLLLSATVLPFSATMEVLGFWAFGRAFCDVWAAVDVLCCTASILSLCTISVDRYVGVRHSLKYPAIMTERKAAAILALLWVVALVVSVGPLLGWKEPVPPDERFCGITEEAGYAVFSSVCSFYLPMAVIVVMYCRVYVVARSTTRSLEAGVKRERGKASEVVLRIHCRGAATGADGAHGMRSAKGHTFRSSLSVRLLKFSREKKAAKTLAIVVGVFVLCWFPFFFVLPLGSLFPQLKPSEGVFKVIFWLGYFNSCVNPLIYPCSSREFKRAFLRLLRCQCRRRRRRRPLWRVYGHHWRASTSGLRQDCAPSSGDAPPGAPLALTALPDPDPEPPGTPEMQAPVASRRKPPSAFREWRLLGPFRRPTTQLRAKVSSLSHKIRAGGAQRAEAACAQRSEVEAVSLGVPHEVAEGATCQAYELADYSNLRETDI
# human α1A‐adrenoceptor [4] = target: T1, human α1A‐adrenoceptor; details: CHO‐α1A cells; given as log KD (negative); ligands marked ^a; ref Proudman et al., 2020; cited from earlier work
# human α1B‐adrenoceptor [5] = target: T2, human α1B‐adrenoceptor; experiment: ERK1/2‐phosphorylation (Surefire Alphascreen), CHO‐α1B cells; type: cell-based; details: CHO‐α1B cells; maximal response as % PDBu response; for bi‐phasic responses the initial stimulatory part
# [6] = tested on: parental CHO cell line without any transfected receptors; experiment: ERK1/2‐phosphorylation, parent CHO cells without transfected receptors; type: cell-based, Chinese hamster
# human α1B‐adrenoceptor [7] = target: T2, human α1B‐adrenoceptor; details: CHO‐α1B cells, ref Proudman et al., 2020, cited from earlier work; for Log KD α1B, ^3H‐prazosin whole cell binding: given as log KD (negative), ligands marked ^a
# [8] = target: T3, human α1D‐adrenoceptor (full length); details: CHO‐α1D cells; ligands marked ^a; ref Proudman et al., 2020; cited from earlier work
# [9] = tested on: parental CHO cell line without any transfected receptors; experiment: Forskolin‐stimulated cAMP accumulation, parent CHO cells without transfected receptors; type: cell-based, Chinese hamster; details: CHO cells without transfected receptors; in presence of forskolin
# human α1A‐adrenoceptor [10] = target: T1, human α1A‐adrenoceptor; experiment: ^3H‐cAMP accumulation, CHO‐α1A cells; type: cell-based; details: CHO‐α1A cells; for cAMP accumulation Log EC50: 5 h; for cAMP accumulation % forskolin: % of 10 µM forskolin response
# human α1A‐adrenoceptor [11] = target: T1, human α1A‐adrenoceptor; experiment: ERK1/2‐phosphorylation (Surefire Alphascreen), CHO‐α1A cells; type: cell-based; details: CHO‐α1A cells; % of 10 µM PDBu; ^a bi‐phasic: initial stimulatory part
# [12] = target: T3, human α1D‐adrenoceptor (full length); experiment: Intracellular free calcium mobilization, CHO‐α1D cells; type: cell-based; details: CHO‐α1D cells; for Intracellular calcium release % ionomycin: maximal response as % of 10 µM ionomycin
# [13] = tested on: parental CHO cell line without any transfected receptors; experiment: Intracellular calcium mobilization, parent CHO cells without transfected receptors; type: cell-based, Chinese hamster; details: Cricetulus griseus; CHO cells without transfected receptors; response at maximum concentration used (c2), as % of ionomycin (10μM) response; mean ± s.e.m.; read-out: Intracellular calcium release % ionomycin
# human α1A‐adrenoceptor [14] = target: T1, human α1A‐adrenoceptor; experiment: ^3H‐cAMP accumulation in the presence of 10 μM forskolin, CHO‐α1A cells; type: cell-based; details: CHO‐α1A cells; 10 μM forskolin
# [15] = target: T3, human α1D‐adrenoceptor (full length); experiment: ^3H‐prazosin whole‐cell radioligand binding, CHO‐α1D cells
# human α1A‐adrenoceptor [16] = target: T1, human α1A‐adrenoceptor; experiment: ^3H‐prazosin whole‐cell radioligand binding, CHO‐α1A cells
# [17] = CHO‐α1A cells, given as log EC50 (negative)
# [18] = CHO cells without transfected receptors, maximal response as % of PDBu (10μM) response, mean ± s.e.m.
# [19] = response at 100 µM ligand (no EC50 given)
SMILES,Intracellular calcium release Log EC50 (human α1A‐adrenoceptor [1]; [17]),Intracellular calcium release % ionomycin (human α1A‐adrenoceptor [1]; CHO‐α1A cells) [%],Intracellular calcium release % Ionomycin at 100 µM (human α1B‐adrenoceptor [2]) [%],ERK1/2‐phosphorylation % PDBu [3],"Log KD α1A, ^3H‐prazosin whole cell binding (human α1A‐adrenoceptor [4])",ERK1/2‐phosphorylation % PDBu (human α1B‐adrenoceptor [5]),"ERK1/2-phosphorylation % PDBu [6, 18]","Log KD α1B, ^3H‐prazosin whole cell binding (human α1B‐adrenoceptor [7])","% site 1 (% of the response at the first component), α1D two‐component binding curve [8] [%]",cAMP accumulation (in presence of forskolin) Log EC50 [9],cAMP accumulation Log EC50 (human α1A‐adrenoceptor [10]),cAMP accumulation % forskolin (human α1A‐adrenoceptor [10]),ERK1/2‐phosphorylation % PDBu (human α1A‐adrenoceptor [11]) [%],Intracellular calcium release % ionomycin [12],Intracellular calcium release Log EC50 (human α1B‐adrenoceptor [2]),Intracellular calcium release % ionomycin (human α1B‐adrenoceptor [2]),cAMP accumulation (in presence of forskolin) Log EC50 (human α1A‐adrenoceptor [14]),further results
COc1ccccc1N1CCN(CCN2C(=O)c3ccccc3C(C)(C)C2=O)CC1 [ARC239],−7.99 ± 0.19,20.8 ± 2.0,4.8 ± 1.7,No response,−9.35 ± 0.08,No response,No response,−8.15 ± 0.07,60.5 ± 1.4,No response,−8.41 ± 0.23,1.2 ± 0.2%,29.2 ± 3.8,No response,,,,
COc1ccccc1N1CCN(CCN2C(=O)CC3(CCCC3)CC2=O)CC1 [BMY7378],,25.0 ± 3.4,8.0 ± 2.1,,,No response,No response,,57.7 ± 2.6,No response,,No response,29.0 ± 4.7,,,,,"ERK1/2‐phosphorylation % PDBu at 100 µM [3, 19]: 3.0 ± 1.5%; Emax [13]: 7.8 ± 2.2%; Intracellular calcium release % Ionomycin at 100 µM [12, 19]: 4.2 ± 1.0%"
O=C1Nc2ccccc2C2=NC(CN3CCN(c4ccccc4)CC3)CN12 (stereo not shown) [2‐PMDQ],−7.63 ± 0.13,16.6 ± 1.8,,No response,−8.19 ± 0.09,,,−6.95 ± 0.05,57.6 ± 2.8,,No response,No response,10.4 ± 3.4,No response,No response,No response,No response,
COc1ccccc1N1CCN(CC2CN3C(=O)N(C)c4ccccc4C3=N2)CC1 (stereo not shown) [2‐MPMDQ],−7.69 ± 0.08,19.7 ± 2.0,3.1 ± 1.5,No response,−9.06 ± 0.07,No response,,−7.37 ± 0.04,64.0 ± 2.1,,No response,No response,13.6 ± 3.7,No response,,,No response,
CC(C)(C)NCC(O)COc1cccc2[nH]c(=O)[nH]c12 (stereo not shown) [CGP 12177],,37.0 ± 2.8,,25.8 ± 3.2%,,38.1 ± 3.8%,,,,,,,86.8 ± 2.6,No response,No response,No response,,"Log efficacy ratio KD /EC50 (human α1A‐adrenoceptor [1]): 1.04; EC50 (human α1A‐adrenoceptor [1]; CHO‐α1A cells, given as log EC50 (negative), read-out: Intracellular calcium release Log EC50 (converted)): 661 nM; Affinity selectivity ratio α1B vs α1D [15]: >1.6 fold; Emax ([6]; Cricetulus griseus, CHO cells without transfected receptors, maximal response as % of PDBu (10μM) response, mean ± s.e.m., read-out: ERK1/2-phosphorylation % PDBu): 22.8 ± 4.3%; EC50 ([6]; Cricetulus griseus, CHO cells without transfected receptors, mean ± s.e.m., read-out: ERK1/2-phosphorylation Log EC50 (converted)): 977 nM; ERK1/2‐phosphorylation response in parent CHO cells ([6]; untransfected cells): stimulated ERK1/2‐phosphorylation responses; Log IC50 α1B, ^3H‐prazosin whole cell binding (human α1B‐adrenoceptor [7]; printed as IC50> log value, ligand marked ^a): IC50>−4; Affinity selectivity ratio α1A vs α1B (human α1A‐adrenoceptor [16]): >13.8 fold; Intracellular calcium release Log EC50 ([12]; log values given negative): No response"

# Source: publication PMC8343220, “The selectivity of α‐adrenoceptor agonists for the human α1A, α1B, and α1D‐adrenoceptors” (Pharmacology Research & Perspectives, 2021)
